B1: Tum-3: residues 133 to 244 of Tumstatin (SEQ ID NO:24) (protein)
chain: AVHSQTTDIPPCPHGWISLWKGFSFIMFTSAGSEGTGQALASPGSCLEEFRASPFLECHGRGTCNYYSNSYSFWLASLNPERMFRKPIPSTVKAGELEKIISRCQVCMKKRH
modifications: Tum-3 (amino acids 133-244 of SEQ ID NO10)

Legend:
PC3 tumor xenografts [1] = experiment: PC3 human prostate tumor xenograft (Example 59); format: in vivo, nude NCRNU mice; conditions: 3 weeks; for Final Tumor Weight (V/Vo) ± SEM: control 1070.0 ± 132.5
Text: (§1) For tests involving the MDAMB-435 model, female nude NCRNU mice, 5-6 weeks old, weighing approximately 20 grams, were implanted with 2×10^6 MDAMB-435 cells into the subaxillary mammary fat pad. For tests involving the PC3 model, male nude NCRNU mice, 5-6 weeks old, weighing approximately 25 g were implanted with 2×10^6 PC3 cells into the dorsal subcutis. When the tumors were 100 mm^3 (for the MDAMB-435 model), or 60 mm^3 (for the PC3 model), the animals were pair-matched into treatment and control groups.
(§2) Each group contained 6-7 tumored mice, each of which was ear-tagged and followed individually throughout the experiment. Initial doses of peptide or vehicle control were given on the day of pair-matching (Day 0), and were administered daily via intraperitoneal (i.p.) injection at doses indicated. Mice were weighed weekly, and tumor measurements were taken by calipers weekly, starting on Day 0. These tumor measurements were converted to tumor volume by a well-known formula, (V=W^2×L/2) and mean tumor volumes were plotted against time. Mice were euthenized at the end of the treatment period. Upon termination, the mice were weighed, sacrificed and their tumors were excised. The mean tumor weight per group was calculated, and the mean treated tumor volume/control tumor volume×100 was subtracted from 100% to give the tumor growth inhibition (TGI) for each group.

[2] = test system: MDAMB-435 tumor xenografts; experiment: MDAMB-435 human breast tumor xenograft (Example 59); format: in vivo, nude NCRNU mice; conditions: 3 weeks; for Final Tumor Weight (V/Vo) ± SEM: control 468.5 ± 48.06
Text: as §1, §2

Caspase-3 in C-PAE cells = experiment: Caspase-3 assay; format: cell-based, bovine
Experimental: Tumstatin also altered cell morphology of C-PAE cells as monitored by phase contrast microscopy. After treating cells with 20 μg/ml of Tumstatin in the presence of 10% FCS for 24 hours on fibronectin-coated plates, the typical morphological features of apoptotic cells, membrane blebbing, cytoplasmic shrinkage, and chromatin condensation could be observed. […] Caspase-3 assay: Caspase-3 (CPP32) is an intracellular protease activated at the early stage of apoptosis, and initiates cellular breakdown by degrading structural and DNA repair proteins (Casciola-Rosen, L. et al., 1996, J. Exp. Med. 183:1957-64; Salvesen, G. S. et al., 1997, Cell 91:443-46). The protease activity of Caspase-3 was measured spectrophotometrically by detection of the chromophore (p-nitroanilide) cleaved from the labeled substrate (DEVD-pNA). C-PAE cells or PC-3 cells (0.5×10^6 per well) were plated onto a 6-well plate precoated with fibronectin (10 μg/ml) in DMEM supplemented with 10% FCS, and incubated overnight. The next day, the medium was replaced with DMEM containing 2% FCS and then incubated overnight at 37° C. Then cells were then stimulated with bFGF (3 ng/ml) in DMEM supplemented with 2% FCS, and also containing either TNF-α (80 ng/ml, positive control) or Tumstatin (10 μg/ml), and incubated for 24 hours. Controls received PBS buffer. After 24 hours, the supernatant cells were collected, and attached cells were trypsinized and combined with the supernatant cells. Cells were counted and resuspended in cell lysis buffer (Clontech) at a concentration of 4×10^7 cells/ml. The rest of the protocol followed the manufacturer's instructions (Clontech). A specific inhibitor of Caspase-3, DEVD-fmk (Asp-Glu-Val-Asp-fluoromethyl ketone) was used to confirm the specificity of the assay. The absorbance was measured in a microplate reader (Bio-Rad, Hercules, Calif., USA) at 405 nm. The assay was repeated three times for each cell type.
Apoptosis was also evaluated by measuring Caspase-3 activity as described in Example 27, above. The results are shown in FIG. 35, which is a histogram showing Caspase-3 activity as a measure of absorbance at OD405 (y-axis) of C-PAE cells treated (x-axis) with 5 μg/ml Tum-1, Tum-2, Tum-3 or Tum-4, or 80 ng/ml TNF-α or PBS buffer (control).
Caspase-3 activity was also assayed as described above. DEVD-fmk, a specific caspase-3 inhibitor, was used as an internal control to show specificity of Tumstatin-44-131. TNF-α (80 ng/ml) was used as a positive control. The experiments were repeated three times.
The protease activity of Caspase-3 in cells treated with T3 peptide was measured spectrophotometrically by detection of the chromophore (p-nitroanilide) cleaved from the labeled substrate (DEVD-pNA). […] In PC-3 nonendothelial cells, there was no difference in Caspase-3 activity between control treatments and T3 peptide-treated cells.

PC3 tumor xenografts [3] = experiment: PC3 human prostate tumor xenograft (Example 58); format: in vivo, nude NCRNU mice; conditions: 5.0 mg/kg i.p. daily, 3 weeks
Experimental: Male nude NCRNU mice, 5-6 weeks old, weighing approximately 25 grams, 6 were implanted with 2×10^6 PC3 cells into the dorsal subcutis. When the tumors were 60 mm^3, the animals were pair-matched into treatment and control groups. Each group contained 6-7 tumored mice, each of which was ear-tagged and followed individually throughout the experiment. Initial doses of peptide or vehicle control were given on the day of pair-matching (Day 0), and were administered via intraperitoneal (i.p.) injection at doses indicated. Mice were weighed weekly, and tumor measurements were taken by calipers weekly. These tumor measurements were converted to tumor volume by a well-known formula, (V=W^2×L/2), and mean tumor volumes were plotted against time. Mice were euthenized at the end of the treatment period. Upon termination, the mice were weighed, sacrificed and their tumors were excised. The mean tumor weight per group was calculated, and the value of mean treated tumor volume or volume ratio/mean control tumor volume or volume ratio×100 was subtracted from 100% to give the tumor growth inhibition (TG1) for each group. All groups received injections I.P. daily, except for two T8-treated groups, which were treated twice per week and once a week, respectively.

C-PAE cells = experiment: Endothelial cell proliferation, methylene blue staining; format: cell-based, bovine
Experimental: A methylene blue staining test was also done. 3,100 cells were added to each well and treated as above, and cells were then counted using the method of Oliver et al. (Oliver, M. H. et al., 1989, J. Cell. Science 92:513-18). All wells were washed one time with […] of 1×PBS and the cells were fixed by adding […] of 10% formalin in neutral-buffered saline (Sigma Chemical Co., St. Louis, Mo., USA) for 30 minutes at room temperature. After formalin removal cells were stained with a solution of 1% methylene blue (Sigma Chemical Co.) in 0.01 M borate buffer (pH 8.5) for 30 minutes at room temperature. After removal of staining solution, the wells were washed 5 times with […] of 0.01 M borate buffer (pH 8.5). Methylene blue was extracted from the cells with […] of 0.1N HCi/ethanol (1:1 mixture) for 1 hour at room temperature. The amount of methylene blue staining was measured on a microplate reader (BioRad, Hercules, Calif., USA) using light absorbance at 655 nm wavelength.
In the methylene-blue staining method, 7000 cells were plated into each well of a 96-well plate, and treated as described above. Cells were then counted using the method of Oliver et al. (1989, J. Cell. Sci. 92:513-8). After 48 hours of treatment, all wells were washed with 100 μl of PBS, and the cells fixed with 10% formalin in neutral-buffered saline (Sigma Chemical Co., St. Louis, Mo., USA). The cells were then stained with 1% methylene blue (Sigma) in 0.01M borate buffer, pH 8.5. Wells were washed with 0.01M borate buffer, and the methylene blue extracted from the cells with 0.1N HCl/ethanol, and the absorbance measured in a microplate reader (Bio-Rad, Hercules, Calif., USA) at 655 nm. Polymyxin B (Sigma) at a final concentration of 5 μg/ml was used to inactivate endotoxin (Liu, S. et al., 1997, Clin. Biochem. 30:455-63).
Proliferation of endothelial cells (C-PAE cells) and WM-164 melanoma cells was assayed by methylene blue staining, as described above in Examples 25 and 34. The results are shown in FIGS. 33A and 33B, which are a pair of graphs showing the effect of increasing concentration (x-axis) of Tumstatin, Tum-1, Tum-2, Tum-3 and Tum-4 on the relative number (y-axis) of C-PAE cells (FIG. 33A) and WM-164 cells (FIG. 33B). […] Tum-4, however, did have anti-proliferative activity in this cell line. […] Only Tum-4 inhibited WM-164 melanoma cells.
For the proliferation assay, Canstatin, Can-1 and Can-2 soluble proteins (0.1-20.0 μg/ml) were added to the growth medium of proliferating C-PAE cells, which were stimulated with 10% FBS in DMEM, in addition to 5 ng/ml bFGF and 3 ng/ml VEGF. The results are shown in FIG. 40, which is a graph showing the effect of increasing concentrations of Canstatin (♦), Can-1 (▪) and Can-2 (▴) (x-axis) on the relative cell number (y-axis) of C-PAE cells. Each concentration of each protein was tested in quadruplicate. Bovine serum albumin (BSA) was used as a control treatment. Polymyxin B was used to control for endotoxin interference, and no differences were found between assays run with and without polymyxin B added to the medium. Cells were allowed to proliferate for 48 hours, and were then fixed, stained and the density read with a Bio-Rad plate reader (Bio-Rad, Hercules, Calif., USA). Canstatin and Can-1 both caused dose-dependent decreases in the percent cell number, and both reduced the number of cells by 80% at concentrations of 5 μg/ml and higher.
An endothelial cell proliferation assay was used to compare the activity of Tumstatin and some of the deletion mutants. Recombinant Tumstatin (28 kDa), Tumstatin-44-131 (12 kDa) and T3 peptide were used in a methylene blue proliferation assay in equimolar concentrations.

Molecule | % Tumor growth inhibition (PC3 tumor xenografts [1]; 1.0 mg/kg i.p. daily) [%] | Final Tumor Weight (V/Vo) ± SEM (PC3 tumor xenografts [1]; 1.0 mg/kg i.p. daily) | % Tumor growth inhibition (PC3 tumor xenografts [1]; 5.0 mg/kg i.p. daily) [%] | Final Tumor Weight (V/Vo) ± SEM (PC3 tumor xenografts [1]; 5.0 mg/kg i.p. daily) | Final Tumor Weight (V/Vo) ± SEM ([2]; 1.0 mg/kg i.p. daily) | Final Tumor Weight (V/Vo) ± SEM ([2]; 5.0 mg/kg i.p. daily) | % Tumor growth inhibition ([2]; 5.0 mg/kg i.p. daily) | other results
KQRFTTMPFLFDNVNDVDNFASRNDYS (P2 (amino acids 68-94 of SEQ ID NO10; lysine has been substituted for the leucine residue at position 68 of the full-length Tumstatin molecule, and aspartic acid has been substituted for the cysteine residues at positions 79 and 85)) | 31.6 | 732.4 ± 85.96 | 15.9 | 899.7 ± 60.25 | 344.7 ± 34.20 | 380.5 ± 25.91 |  | % Tumor growth inhibition ([2]; 1.0 mg/kg i.p. daily): 26.4%
CC(C)[C@H](NC(=O)[C@H](CCC(=O)O)NC(=O)[C@@H](N)CC(=O)O)C(=O)N[C@@H](CC(=O)O)C(=O)CF [DEVD-fmk, Asp-Glu-Val-Asp-fluoromethyl ketone, reference compound] |  |  |  |  |  |  |  | effect of specific Caspase-3 inhibitor on protease activity (Caspase-3 in C-PAE cells): decreased the protease activity to baseline
KQRFTTMPFLFSNVNDVSNFASRNDYS (T8-3 (amino acids 68-94 of SEQ ID NO10; lysine has been substituted for the leucine residue at position 68 of the full-length Tumstatin molecule, and serine has been substituted for the cysteine residues at positions 79 and 85)) | 28.5 | 765.1 ± 133.6 | 35.4 | 691.5 ± 130.8 | 370.1 ± 68.17 | 272.4 ± 34.86 | 41.9% | 
TFNCVKNYQRLDFTSRFVMDSCANFPN (Scrambled peptide SP2) [reference compound] |  |  |  | 931.0 ± 112.3 |  | 527.2 ± 57.89 | no tumor growth inhibition | % Tumor growth inhibition (PC3 tumor xenografts [3]): 18.7%; Final Tumor Weight (V/Vo) ± SEM (PC3 tumor xenografts [3]; T7 vehicle 5.626 ± 0.38, T8 vehicle 6.278 ± 1.483): 5.097 ± 0.185
B1 |  |  |  |  |  |  |  | inhibition of proliferation of C-PAE cells (C-PAE cells; 15 μg/ml): did not inhibit; Relative Cell No. (%) C-PAE (C-PAE cells; 20% FCS, 15 μg/ml recombinant protein): 94.9 ± 3.1%; effect on Caspase-3 activity (Caspase-3 in C-PAE cells; 5 μg/ml): did not
